Laboratory results reported in US20170253607A1, “LONG-ACTING HIV PROTEASE INHIBITOR” (Shionogi & Co., Ltd., priority 2014, published 2017).

biological target: HIV-1 PR (Human immunodeficiency virus type 1 group M subtype B, UniProt P04585); experiment: HIV-protease inhibitory activity assay (FRET peptide substrate); format: biochemical; conditions: Test Example 1
Outline: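 HIV-1 PR (0.83 ng) preincubated with compounds 20 min at room temperature in 0.1 mol/L NaAc, 0.5 mol/L NaCl, 1 mmol/L EDTA, 1 mmol/L DTT, 0.05% Tween 20, pH 4.8. Cleavage of HiLyte Fluor 488/QXL 520 FRET peptide (2 μmol/L) read after 60 minutes at 485/535 nm; IC50 from four-parameter logistic fit.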

Structure (SMILES)	IC50 [nM]
COc1ccc(S(=O)(=O)N(CC(C)C)CC(O)C(Cc2ccc(N(C)Cc3ccc(C)cc3-c3sc4c(c3C(=O)O)CC(C)(C)CC4)cc2)NC(=O)OC2COC3(C)OCCC23)cc1 (stereo not drawn) [Compound I-488]	2.2
COc1ccc(S(=O)(=O)N(CC(C)C)CC(O)C(Cc2ccc(NCc3c(-c4sc5c(c4C(=O)O)CC(C)(C)CC5)ccc4ccccc34)cc2)NC(=O)OC2COC3(C)OCCC23)cc1 (stereo not drawn) [Compound I-531]	6.98
COc1ccc(S(=O)(=O)N(CC2CCC2)CC(O)C(Cc2ccc(NCc3ccccc3C(=O)Nc3sc4c(c3C(=O)O)CC(C)(C)CC4)cc2)NC(=O)OC2COC3(C)OCCC23)cc1 (stereo not drawn) [Compound I-602]	3.67
COc1ccc(S(=O)(=O)N(CC(C)C)CC(O)C(Cc2ccc(OCc3ccccc3-c3sc4c(c3C(=O)O)CC(C)(C)CC4)cc2)NC(=O)OC2COC3(COC(=O)NCc4ccc(F)cc4)OCCC23)cc1 (stereo not drawn) [Compound I-784]	7.3
COc1ccc(S(=O)(=O)N(CC(C)C)CC(O)C(Cc2ccc(CN(C)C3CCCCC3c3sc4c(c3C(=O)O)CC(C)(C)CC4)cc2)NC(=O)OC2COC3(C)OCCC23)cc1 (stereo not drawn) [Compound I-342]	2.06
CC(C)CN(CC(O)C(Cc1ccc(CCc2sc3c(c2C(=O)O)CC(C)(C)CC3)cc1)NC(=O)OC1COC2(C)OCCC12O)S(=O)(=O)c1ccc2ncsc2c1 (stereo not drawn) [Compound I-889]	1.49
COc1ccc(S(=O)(=O)N(CC(C)C)CC(O)C(Cc2ccc(NCc3ccc(C(=O)O)cc3-c3sc4c(c3C(=O)O)CC(C)(C)CC4)cc2)NC(=O)OC2COC3(C)OCCC23)cc1 (stereo not drawn) [Compound I-413]	1.84
COc1ccc(S(=O)(=O)N(CC(C)C)CC(O)C(Cc2ccc(OCCNc3ccc(C#N)cc3-c3sc4c(c3C(=O)O)CC(C)(C)CC4)cc2)NC(=O)OC2COC3(C)OCCC23)cc1 (stereo not drawn) [Compound I-258]	5.23
COc1ccc(S(=O)(=O)N(CC(C)C)CC(O)C(Cc2ccc(NCc3ccc(C(F)(F)F)cc3C(=O)Nc3sc4c(c3C(=O)O)CC(C)(C)CC4)cc2)NC(=O)OC2COC3(C)OCCC23)cc1 (stereo not drawn) [Compound I-690]	7.7
COc1ccc(S(=O)(=O)N(CC(C)C)C[C@@H](O)[C@H](Cc2ccc(OCc3ccc(-c4ccc(F)cc4F)cc3-c3noc(=O)[nH]3)cc2)NC(=O)O[C@H]2CO[C@@]3(C)OCC[C@@H]23)cc1 [Compound I-21]	1.39
CC(C)CN(CC(O)C(Cc1ccc(OCc2sc(Oc3ccccc3)nc2C(=O)O)cc1)NC(=O)OC1COC2OCCC12)S(=O)(=O)c1ccc2ncsc2c1 (stereo not drawn) [Compound I-818]	0.64
COc1ccc(S(=O)(=O)N(CC(C)C)CC(O)C(Cc2ccc(OCCNC(=O)C(=NO)c3cc(O)cc(Cl)c3)cc2)NC(=O)OC2COC3(C)OCCC23)cc1 (stereo not drawn) [Compound I-67]	1.88
COc1ccc(S(=O)(=O)N(CC(C)C)CC(O)C(Cc2ccc(NCc3cc(OC(F)(F)F)ccc3-c3sc4c(c3C(=O)O)CC(C)(C)CC4)cc2)NC(=O)OC2COC3(C)OCCC23)cc1 (stereo not drawn) [Compound I-678]	5.48
COc1ccc(S(=O)(=O)N(CC(C)C)CC(O)C(Cc2ccc(N3CCc4c(cccc4-c4sc5c(c4C(=O)O)CC(C)(C)CC5)C3)cc2)NC(=O)OC2COC3(C)OCCC23)cc1 (stereo not drawn) [Compound I-226]	4.48
COc1ccc(S(=O)(=O)N(CC(C)C)CC(O)C(Cc2ccc(NCc3cccc4c(-c5sc6c(c5C(=O)O)CC(C)(C)CC6)cccc34)cc2)NC(=O)OC2COC3(C)OCCC23)cc1 (stereo not drawn) [Compound I-675]	13.4
COc1ccc(S(=O)(=O)N(CC(C)C)CC(O)C(Cc2ccc(OCc3ccccc3-c3ccc4c(C(=O)O)csc4c3)cc2)NC(=O)OC2COC3(C)OCCC23)cc1 (stereo not drawn) [Compound I-179]	1.1
COc1ccc(S(=O)(=O)N(CC(C)C)CC(O)C(Cc2ccc(NCc3ccc(OC)c(-c4sc5c(c4C(=O)O)CC(C)(C)CC5)c3)cc2)NC(=O)OC2COC3(C)OCCC23)cc1 (stereo not drawn) [Compound I-293]	1.9
COc1ccc(S(=O)(=O)N(CC(C)C)CC(O)C(Cc2ccc(NCc3ccccc3-c3c(C(=O)O)[nH]c4cc(OC)ccc34)cc2)NC(=O)OC2COC3(C)OCCC23)cc1 (stereo not drawn) [Compound I-634]	2.26
COc1ccc(S(=O)(=O)N(CC(C)C)CC(O)C(Cc2ccc(N(CCC(F)(F)F)Cc3ccccc3-c3sc4c(c3C(=O)O)CC(C)(C)CC4)cc2)NC(=O)OC2COC3(C)OCCC23)cc1 (stereo not drawn) [Compound I-430]	17.5
COc1ccc(S(=O)(=O)N(CC(C)C)CC(O)C(Cc2ccc(NCc3cc(C)c(-c4sc5c(c4C(=O)O)CC(C)(C)CC5)c(C)c3)cc2)NC(=O)OC2COC3(C)OCCC23)cc1 (stereo not drawn) [Compound I-533]	10.6
CC(C)CN(CC(O)C(Cc1ccc(OCc2ccc3ccccc3c2C(=O)N(C)C)cc1)NC(=O)OC1COC2(C)OCCC12)S(=O)(=O)c1ccc2ncsc2c1 (stereo not drawn) [Compound I-163]	1.1

Structure (SMILES)	IC50 [nM]
COc1ccc(S(=O)(=O)N(CC(C)C)CC(O)C(Cc2ccc(NCC3=C(c4sc5c(c4C(=O)O)CC(C)(C)CC5)CCN(C)C3)cc2)NC(=O)OC2COC3(C)OCCC23)cc1 (stereo not drawn) [Compound I-403]	2.3
CC(C)CN(CC(O)C(Cc1ccc(OCc2ccc(C(=O)O)c(-c3ccc(F)cc3F)n2)cc1)NC(=O)OC1COC2(C)OCCC12)S(=O)(=O)c1ccc2ncsc2c1 (stereo not drawn) [Compound I-156]	1.3
COc1ccc(S(=O)(=O)N(CC(C)C)CC(O)C(Cc2ccc(N(C)Cc3cc(N4CCOCC4)ccc3-c3sc4c(c3C(=O)O)CC(C)(C)CC4)cc2)NC(=O)OC2COC3(C)OCCC23)cc1 (stereo not drawn) [Compound I-700]	2.02
COc1ccc(S(=O)(=O)N(CC(C)C)CC(O)C(Cc2ccc(N(CCCC(F)(F)F)Cc3ccccc3-c3sc4c(c3C(=O)O)CC(C)(C)CC4)cc2)NC(=O)OC2COC3(C)OCCC23)cc1 (stereo not drawn) [Compound I-427]	10.4
COc1ccc(S(=O)(=O)N(CC(C)C)CC(O)C(Cc2ccc(NCc3ccccc3-c3sc4c(c3C(=O)O)CC(C)(C)CC4)cc2)NC(=O)OC2COC3OCC(OC)C23)cc1 (stereo not drawn) [Compound I-853]	1.98
COc1ccc(S(=O)(=O)N(CC(C)C)CC(O)C(Cc2ccc(NCC3CC(C)(C)CCC3c3sc4c(c3C(=O)O)CC(C)(C)CC4)cc2)NC(=O)OC2COC3(C)OCCC23)cc1 (stereo not drawn) [Compound I-764]	2.81
COc1ccc(S(=O)(=O)N(CC(C)C)CC(O)C(Cc2ccc(N3CCc4cccc(-c5sc6c(c5C(=O)O)CC(C)(C)CC6)c4C3)cc2)NC(=O)OC2COC3(C)OCCC23)cc1 (stereo not drawn) [Compound I-191]	2.22
COc1ccc(S(=O)(=O)N(CC(C)C)CC(O)C(Cc2ccc(NCc3nc4ccccc4cc3-c3sc4c(c3C(=O)O)CC(C)(C)CC4)cc2)NC(=O)OC2COC3(C)OCCC23)cc1 (stereo not drawn) [Compound I-568]	1.54
COc1ccc(S(=O)(=O)N(CC(C)C)CC(O)C(Cc2ccc(NCc3nc(-c4sc5c(c4C(=O)O)CC(C)(C)CC5)cs3)cc2)NC(=O)OC2COC3(C)OCCC23)cc1 (stereo not drawn) [Compound I-289]	2.4
CCCCCCCCCN(Cc1ccccc1-c1sc2c(c1C(=O)O)CC(C)(C)CC2)c1ccc(CC(NC(=O)OC2COC3(C)OCCC23)C(O)CN(CC(C)C)S(=O)(=O)c2ccc(OC)cc2)cc1 (stereo not drawn) [Compound I-458]	51
COc1ccc(S(=O)(=O)N(CC(C)C)CC(O)C(Cc2ccc(OCc3ccccc3-c3ccc4c(C(=O)O)c(-c5ccc(Cl)cc5C)sc4c3)cc2)NC(=O)OC2COC3(C)OCCC23)cc1 (stereo not drawn) [Compound I-73]	4.73
COc1ccc(S(=O)(=O)N(CC(C)C)CC(O)C(Cc2ccc(OCC3CN(c4ccc(C#N)cc4-c4sc5c(c4C(=O)O)CC(C)(C)CC5)C3)cc2)NC(=O)OC2COC3(C)OCCC23)cc1 (stereo not drawn) [Compound I-329]	7.67
COc1ccc(S(=O)(=O)N(CC(C)C)CC(O)C(Cc2ccc(OCc3ccccc3-n3nc4c(c3C(=O)O)CC3(CCCC3)CC4)cc2)NC(=O)OC2COC3(C)OCCC23)cc1 (stereo not drawn) [Compound I-53]	0.83
CC(C)CN(CC(O)C(Cc1ccc(OCc2cc(-c3ccc(F)cc3F)ccc2C(N)=O)cc1)NC(=O)OC1COC2(C)OCCC12)S(=O)(=O)c1ccc2ncsc2c1 (stereo not drawn) [Compound I-62]	0.82
CCCCCCN(Cc1ccccc1-c1sc2c(c1C(=O)O)CC(C)(C)CC2)c1ccc(CC(NC(=O)OC2COC3(C)OCCC23)C(O)CN(CC(C)C)S(=O)(=O)c2ccc(OC)cc2)cc1 (stereo not drawn) [Compound I-428]	15.9
COc1ccc(S(=O)(=O)N(CC(C)C)CC(O)C(Cc2ccc(Oc3ccc(-c4sc5c(c4C(=O)O)CC(C)(C)CC5)c(OC)c3)cc2)NC(=O)OC2COC3(C)OCCC23)cc1 (stereo not drawn) [Compound I-136]	1.4
COc1ccc(S(=O)(=O)N(CC(C)C)CC(O)C(Cc2ccc(NCC3CCCCC3C(=O)Nc3sc4c(c3C(=O)O)CC(C)(C)CC4)cc2)NC(=O)OC2COC3(C)OCCC23)cc1 (stereo not drawn) [Compound I-615]	3.37
COc1ccc(S(=O)(=O)N(CC(C)C)CC(O)C(Cc2ccc(OCc3ccccc3OCC(=O)O)cc2)NC(=O)OC2COC3(C)OCCC23)cc1 (stereo not drawn) [Compound I-311]	1.88
COc1ccc(S(=O)(=O)N(CC(C)C)CC(O)C(Cc2ccc(N(C)Cc3nc(N4CCCC4)sc3-c3ccc(-c4sc5c(c4C(=O)O)CC(C)(C)CC5)cc3)cc2)NC(=O)OC2COC3(C)OCCC23)cc1 (stereo not drawn) [Compound I-715]	5.31
COc1ccc(S(=O)(=O)N(CC(C)C)CC(O)C(Cc2ccc(N(C)Cc3ncccc3-c3cccc(-c4sc5c(c4C(=O)O)CC(C)(C)CC5)c3)cc2)NC(=O)OC2COC3(C)OCCC23)cc1 (stereo not drawn) [Compound I-512]	1.63
COc1ccc(S(=O)(=O)N(CC(C)C)CC(O)C(Cc2ccc(OCC3CCCN3c3ccccc3-c3sc4c(c3C(=O)O)CC(C)(C)CC4)cc2)NC(=O)OC2COC3(C)OCCC23)cc1 (stereo not drawn) [Compound I-95]	2.09

test system: not listed separately; experiment: Evaluation of total body clearance (CLtot), intravenous administration; format: in vivo, Sprague-Dawley (SD); conditions: rat (SD), intravenous administration 0.5-10 mg/kg; CLtot = dose/AUC
Procedure: Dose: Intravenous administration with designated doses was selected. (Doses were changed depending on compounds.) • 0.5-10 mg/kg (n=2-3) Preparation of dosing formulation: The dosing solution was prepared by dissolving in an adequate solvent. Administration method: The dosing solution was injected into the tail vein by a syringe with a needle Blood sampling: The blood was collected at the scheduled time and obtained the plasma. Plasma concentrations of the compound were measured by LC/MS/MS. Statistical analysis: Area under the plasma concentration-time curve (AUC) of the compound was calculated by pharmacokinetic analysis software, WinNonlin™ and CLtot was calculated by dividing the dose by AUC.

Structure (SMILES)	rat_CLt [mL/h/kg]
COc1ccc(S(=O)(=O)N(CC(C)C)CC(O)C(Cc2ccc(N(C)Cc3ccc(C)cc3-c3sc4c(c3C(=O)O)CC(C)(C)CC4)cc2)NC(=O)OC2COC3(C)OCCC23)cc1 (stereo not drawn) [Compound I-488]	30.1
COc1ccc(S(=O)(=O)N(CC(C)C)CC(O)C(Cc2ccc(NCc3c(-c4sc5c(c4C(=O)O)CC(C)(C)CC5)ccc4ccccc34)cc2)NC(=O)OC2COC3(C)OCCC23)cc1 (stereo not drawn) [Compound I-531]	3.26
COc1ccc(S(=O)(=O)N(CC2CCC2)CC(O)C(Cc2ccc(NCc3ccccc3C(=O)Nc3sc4c(c3C(=O)O)CC(C)(C)CC4)cc2)NC(=O)OC2COC3(C)OCCC23)cc1 (stereo not drawn) [Compound I-602]	4
